Columns and labels:
Hepatocyte stability = format: in vitro ADME, dog (Beagle); details: Dog, 1 μmol/L
Method: Metabolic stability: liver microsomes and hepatocytes from human, mouse (CD1), rat (Sprague Dawley) and dog (Beagle) were obtained from Invitrogen. RXC004 (1 μmol/L) was incubated at 37°C with microsomes (0.5 mg · mL^−1) or hepatocytes (0.5 × 10^6 cells · mL^−1). Aliquots were removed at 0–45 minutes and RXC004 concentrations determined by LC/MS-MS analysis. Half-life (T1/2) and intrinsic clearance (CLint) were calculated as described in ref. [18].

HCT116 cells = assay: Wnt-responsive gene expression (qPCR); format: cell-based, human
From the text: (§1) The expression of nine potential Wnt-responsive genes was screened across cell lines by treatment with RXC004 (10 nmol/L) or DMSO (0.1%) for 3 days. RNA was extracted (Aurum RNA isolation kit, Bio-Rad #372-6820) and gene expression assessed by Taqman qPCR relative to appropriate housekeeping genes on the Bio-Rad CFX real-time system.
(§2) For concentration–response effects on gene expression, Single-Shot Cell Lysis kit (Bio-Rad #172-5080) was used for RNA extraction, data were normalized to DMSO-treated controls, and IC50 values determined. For cell-cycle analysis, the cancer cell line panel was treated with RXC004 (100 nmol/L) or DMSO (0.1%) for 3 days. Cell-cycle profiles were determined by staining with propidium iodide (Thermo Fisher Scientific #P3566) and phospho-Ser10-Histone-H3 (AlexaFluor-647, BioLegend #650806), and quantified using an Agilent Novocyte-3000 flow cytometer. For in vitro growth curve analysis, HPAF-II and SNU-1411 cells were seeded in 96-well plates at 2,000 cells/well and imaged on the IncuCyte (Sartorius) at 10× magnification with 4 fields of view per well. Total cell object count over time was calculated using the Adherent Cell-by-Cell analysis module.

WiDR cells = assay: Wnt-responsive gene expression (qPCR); format: cell-based, human
From the text: as §1, §2

[1] = test system: cell lines with RNF43 LoF mutations and RSPO3 fusions; assay: Wnt-responsive gene expression (qPCR); format: cell-based, human; details: 10 nmol/L, 3 days
From the text: as §1, §2

HPAF-II cells = assay: Caspase 3/7 analysis; format: cell-based, human; details: 100nM, 7 days
Method: (§3) Cells were treated with RXC004 (100 nmol/L) or DMSO (0.02%) for 7 days. Caspase 3/7 activity was measured using Caspase-Glo 3/7 Assay System (Promega #G8091) and data were plotted as a ratio relative to cell number as quantified using ATPlite 1-Step Reagent (Perkin Elmer #6016731).

SNU-1411 cells = assay: Caspase 3/7 analysis; format: cell-based, human; details: SNU-1411, 100nM, 7 days
Method: as §3

AsPC1 xenograft = assay: Xenograft pilot study; format: in vivo, mouse (athymic nude); details: AsPC1, 1.5 mg/kg twice daily oral
Method: (§4) The in vivo pilot studies were performed at Axis Bioservices. HPAF-II (5 × 10^6 cells; athymic nude mice), AsPC1 (3 × 10^6 cells; athymic nude mice), and SNU-1411 (1 × 10^7 cells; NOD-SCID mice) were implanted bilaterally, subcutaneously, whereas HCT116 (3 × 10^6 cells; athymic nude mice) were implanted in a single flank. Animals were randomized into the indicated groups and treatment initiated once tumor volumes reached approximately 100–150 mm^3. Dosing was either 1.5 mg/kg twice daily RXC004 for 7–13 days then once daily for the remainder of study (up to 29 days), or 28 days 1.5 mg/kg twice daily RXC004 for HCT116. In these and all other animal studies, unless otherwise specified, RXC004 was dosed orally in 0.5% carboxymethylcellulose + 0.1% Tween-80. For AsPC1, an ascites model, end of study tumor weight (mg) was measured. A total of 12 hours after the final dose, RNA was extracted [GenElute RNA isolation kit (#RTN70, Sigma)] from snap frozen tumor for qRT-PCR expression analysis of Axin2, c-Myc, RNF43, MUC4, and MUC5AC relative to appropriate housekeepers.

HCT116 xenograft = assay: Xenograft pilot study; format: in vivo, mouse (athymic nude); details: HCT116, 1.5 mg/kg twice daily oral, 28 days
Method: as §4

HPAF-II xenograft = assay: Xenograft pilot study; format: in vivo, mouse (athymic nude); details: 1.5 mg/kg twice daily oral
Method: as §4

[2] = test system: HPAF-II cells cocultured with human PBMCs; assay: HPAF-II / human PBMC coculture; format: cell-based; details: HPAF-II pretreated 100 nmol/L, 3 days
Method: HPAF-II cells were incubated for 3 days with RXC004 (100 nmol/L) or DMSO control, washed and detached using Accutase and equal number of viable cells (as assessed by Trypan Blue exclusion) per treatment were reseeded in 96-well plates. Frozen human peripheral blood mononuclear cells (PBMC), originally collected by density gradient separation using Histopaque from four healthy donors, were thawed and cultured in complete media. After approximately 40 hours, nonadherent PBMCs were added to coculture with the HPAF-II cells, at a PBMC:HPAF-II ratio of 5:1. T-cell proliferation and cytokine production was stimulated using Immunocult CD3/CD28-tetramer (Stemcell Technologies #10971). For monoculture nonadherent PBMC experiments, T cells were stimulated using Immunocult in the presence or absence of recombinant Wnt3a (Biotechne #5036-WN-010) and/or recombinant Wnt5a (Biotechne #645-WN-010), both at 100 ng/mL. After 5 days, supernatants from monoculture or coculture experiments were removed for analysis, whereas suspension cells were fixed, stained with anti-Ki67 (BD #563462), anti-CD4 (BioLegend #317420), and anti-CD8 (BD #564116) antibodies, before flow cytometry was performed on a Novocyte flow cytometer. Cytokines and chemokines in the supernatant were quantified using a 30-plex panel on Magpix (Thermo Fisher Scientific #LHC6003M) or ELISA for IFNγ (R&D Systems # DY285B-05).

With `Cc1c(-c2ccnc(C(F)(F)F)c2)ncn1CC(=O)Nc1ccc(-c2cnccn2)cn1` [RXC004, 2-[5-methyl-4-[2-(trifluoromethyl)-4-pyridyl]imidazol-1-yl]-N-(5-pyrazin-2-yl-2-pyridyl)acetamide] as the compound, how does the “Hepatocyte stability: CLint” value (Hepatocyte stability) read?
Its value is 12.5 μL minute^−^1 · 10^6 cells^−^1.

And the “Wnt pathway target expression” value (HCT116 cells; HCT116, 10 nmol/L, 3 days)?
The value was “Minimal effects”.

What about the IC50 (HCT116 cells; Homo sapiens, HCT-116, HCT116, read-out: IC50, c-Myc mRNA expression) of the same compound?
Its IC50 is greater than 10 µM.

And the IC50 (WiDR cells; Homo sapiens, WiDr, read-out: IC50, c-Myc mRNA expression)?
Its IC50 is greater than 10 µM.

What about the “Wnt pathway target expression” value (WiDR cells; WiDR, 10 nmol/L, 3 days) of the same compound?
The value was “Minimal effects”.

And the “mRNA expression of Wnt pathway targets Axin2, RNF43, c-Myc, CD44, MMP7” value [1]?
Its value is “downregulated mRNA expression of Wnt pathway targets”.

What about the “mucin mRNA” value [1] of the same compound?
The value was “marked increase in mucin mRNA”.

And the “relative Caspase 3/7 activity” value (HPAF-II cells)?
Its value is “no effect”.

And the “relative Caspase 3/7 activity” value (SNU-1411 cells)?
Its value is “no effect”.

What about the “Wnt-responsive gene expression in tumor including c-Myc” value (AsPC1 xenograft) of the same compound?
The value was “inhibition of Wnt-responsive gene expression”.

And the “tumor growth (tumor weight)” value (AsPC1 xenograft)?
The value was “reduction in tumor growth”.

And the tumor growth (HCT116 xenograft)?
The tumor growth was “No effect”.

And the “Wnt-responsive gene expression in tumor including c-Myc” value (HPAF-II xenograft)?
The value was “inhibition of Wnt-responsive gene expression”.

And the tumor growth (HPAF-II xenograft)?
Its tumor growth is “reduction in tumor growth”.

What about the “HPAF-II inhibition of T-cell proliferation and IFNγ/GMCSF release” value [2] of the same compound?
Its value is “fully reversed”.

And the “release of CXCL9” value [2]?
Its value is “potentiated the HPAF-II–dependent release of the chemokine CXCL9”.

And the “secretion of VEGF” value [2]?
The value was “reducing the HPAF-II–dependent secretion of the angiogenesis promoting growth factor VEGF”.

Source: publication PMC10010340, “The Wnt Pathway Inhibitor RXC004 Blocks Tumor Growth and Reverses Immune Evasion in Wnt Ligand–dependent Cancer Models” (Cancer Research Communications, 2022)
